Source: US20030104393A1, “Blood assessment of injury” (priority 2000, published 2003)

Tested on: blood cells
Test: Blood pattern of gene expression in epileptic individuals treated with anticonvulsant valporate or carbamazepine (Affymetrix U95A, SAM)
Assay type: in vivo, human
Conditions: for Upregulated genes for Carbamazepine: blood of epileptic individuals treated with carbamazepine vs epileptic individuals taking no anticonvulsant, value = Genbank accession of the upregulated gene; for Pattern of expression in blood for each drug: epileptic individuals treated with anticonvulsant vs epileptic individuals taking no anticonvulsant, FIG. 5
Source text: FIG. 5 is a cluster analysis of the expression obtained from pediatric epilepsy patients prior to being treated compared to the expression of these individuals after being treated with anticonvulsant valporate (VPA) or the anticonvulsant carbamazepine (CPZ), as described in the Example 8;
To study the gene expression in Parkinson's patients, blood from over 30 patients is collected from healthy controls as well as from patients with a variety of disorders, including idiopathic Parkinson's patients with bradykinesia, rigidity and the characteristic tremor without dementia or evidence of any other neurological findings; progressive supranuclear palsy, bipolar disorder, schizophrenia, epilepsy, and Tourettes. A commercially available kit (Qiagen) is used to the blood cells from the whole blood samples, and total RNA isolated from the white blood cells. Two thirds of the RNA is used on DNA microarrays, and one third is used for PCR confirmation of the genes that are changed. After the purity of the RNA is checked ([…]), cDNA is synthesized from the total RNA and used to make biotin labeled cRNA. The cRNA is then applied to Affymetrix chips, human U95A chips that can screen for the expression of over 13,000 human genes including 11,000 known genes and 2,000 ESTs, and processed and scanned according to manufacturer's instructions. The chips are scanned twice for each patient sample. Genes that are expressed over two-fold compared to normals are plotted on figures. These genes are confirmed using standard techniques including PCR, Northern blotting or Western blotting. A separate statistical analysis is also applied to the data. […] Once this analysis is performed, the data is used to perform a class prediction analysis. […] The expression value of the genes is shown on the Y axis and the individual patients are plotted on the X-axis.
Blood is obtained from epileptic individuals, epileptic individuals being treated with anticonvulsant valporate and epileptic individuals being treated with anticonvulsant carbamazepine. A pattern of expression is captured and analyzed for each injury state as described in Example 4.

SMILES	Upregulated genes for Carbamazepine (gene AA883870: am26f01.s1 Homo sapiens cDNA, 3 end)	Upregulated genes for Carbamazepine (gene AB000824: Homo sapiens mRNA for trehalase, complete cds)	Pattern of expression in blood for each drug
NC(=O)N1c2ccccc2C=Cc2ccccc21 [Carbamazepine, carbamazepine]	AA883870	AB000824	different from each other and different from the controls
CCCC(CCC)C(=O)O [Valporate, valporate]			different from each other and different from the controls
